Assay results taken from patent US8530407B2, “Multi-component antioxidant compounds, pharmaceutical compositions containing same and their use for reducing or preventing oxidative stress” (Yissum Research Development Company of the Hebrew …, priority 2000, dated 2013).

Tests used:
[1] = system: reactive oxygen species (ROS) in DHER14 cells; experiment: Inhibition of ROS production, fluorescent dye DHDCF; type: cell-based
Experimental: FIG. 3 represents cellular ROS levels as determined using a fluorescence assay in the presence of CB, NOXi and NAC antioxidants.
The concentration of reactive oxygen species (ROS) in DHER14 cells following administration of antioxidants was determined using the ROS sensitive fluorescent dye DHDCF (fluoresceine derivative). […] The efficacy of CB in reducing ROS was about ˜50 fold better then these two known antioxidants.

[2] = system: JNK (c-Jun NH2-terminal kinase); details: DHER14 cells exposed to cisplatin (CDDP, 30 μM)
Experimental: (§1) In order to show the efficacy of CB against a stimulant that activates oxidative stress, an inhibition assay of both JNK (c-Jun NH2-terminal kinase) and p38 enzymes in tissue culture was performed.
(§2) NIH3T3 cells overexpressing EGF receptor (DHER14 cells) (55) were exposed to cisplatin (CDDP, 30 μM) which activates specific enzymes involved in apoptosis including JNK and p38.
(§3) Two known antioxidants were used as positive controls, NOXi (at 300 and 1000 μM) and NAC (NAC) (at 1000 μM).

[3] = system: p38; details: DHER14 cells exposed to cisplatin (CDDP, 30 μM)
Experimental: as §1, §2, §3

[4] = 20 μM, detected by specific antibodies

| Molecule | efficiency in reducing ROS compared with CB at 20 μM ([1]; 1000 μM) | efficacy against JNK phosphorylation compared with CB at 20 μM ([2]; 1 mM) | efficacy against p38 phosphorylation compared with CB at 20 μM ([3]; 1 mM) | ROS level ([1]; 20 μM) | efficacy in reducing ROS relative to NOXi and NAC ([1]; CB 20 μM versus 1000 μM NAC or 1000 μM NOXi) [fold] | phosphorylated JNK [2, 4] | phosphorylated form of JNK ([2]; increasing concentrations) | phosphorylated p38 [3, 4] | phosphorylated form of p38 ([3]; increasing concentrations) |
| --- | --- | --- | --- | --- | --- | --- | --- | --- | --- |
| CC(=O)N[C@@H](CS)C(=O)O [NAC, N-acetyl cysteine, reference compound] | as efficient as | similar | similar | – | – | – | – | – | – |
| N-Acetyl Cysteine-Glycine-Proline-Cysteine-Amid [CB] | – | – | – | reduction of ROS below normal levels was prominent | ~50 | not detected at all | dramatic reduction | not detected at all | dramatic reduction |
